Measured values: patent US10562898B2, “Substituted benzenesulfonamides as inhibitors of alpha-4 beta-7 integrin activity” (EA PHARMA CO., LTD., priority 2016, dated 2020)

These compounds were tested against T1, α4β1 integrin (Homo sapiens, UniProt P05556+P13612) (assay: VCAM-1/α4β1 integrin binding inhibitory activity evaluation test (Jurkat cells binding to VCAM-1/Fc)). Conditions: recombinant human VCAM-1/Fc.
T1 construct: a cell line Jurkat, which is known to express α4β1 integrin; endogenous in cells; host or cells: Jurkat (human T cell line)
Format: cell-based
Experimental: (1) VCAM-1/α4β1 Integrin Binding Inhibitory Activity Evaluation Test
Each test substance was measured in terms of an ability to inhibit the VCAM-1 binding of a human T cell line, namely, a cell line Jurkat, which is known to express α4β1 integrin.
A solution of recombinant human VCAM-1/Fc (R&D Systems, Inc.) (1 μg/mL) diluted with a buffer A (carbonate buffer, pH 9.6) was placed in an amount of 50 μL/well in a 96-well microtiter plate, followed by incubation at 4° C. overnight. After the plate was washed with PBS once, 150 μL/well of Block Ace (Snow Brand Milk Products Co., Ltd.) was added, followed by incubation at room temperature for 2 hours. After removal, the plate was washed with PBS once.
Then, 100 μL of the Jurkat cells (2×10^6 cells/mL) and 100 μL of the test substance at each of various concentrations diluted with a binding buffer (DMEM containing 40 mM HEPES, 0.2% BSA, and 4 mM MnCl2) were added to the plate coated with the VCAM-1/Fc (5×10^5 cells/well), followed by incubation at 30° C. for 15 to 60 minutes. After the cells were bound to the wells, the plate was washed with PBS to remove unbound cells. A buffer C (PBS containing 1.5% Triton X-100) was added in an amount 50 μL/well to the plate to lyse the bound Jurkat cells. After 30 μL of a substrate buffer (Promega, CytoTox 96 Non-Radioactive Cytotoxicity Assay) was added to 30 μL of the cell lysate, a reaction was allowed to proceed at room temperature in the dark for 30 minutes. After 30 μL of a stop solution (Promega, CytoTox 96 Non-Radioactive Cytotoxicity Assay) was added to each, and then an absorbance at 490 nm was measured using a plate reader. The absorbance obtained here represents a detection result of an activity of lactate dehydrogenase (LDH) eluted in the supernatant of each well, that is, the absorbance is proportional to the number of Jurkat cells bound to the VCAM-1 and thus remaining on the plate. The test was performed in duplicate. Provided that the absorbance of a well containing no test substance was 100%, a cell binding rate with the test substance at each of the various concentrations was figured out, and a concentration IC50 which brought about 50% binding inhibition was calculated.

T1 sequence (P13612 34-1032): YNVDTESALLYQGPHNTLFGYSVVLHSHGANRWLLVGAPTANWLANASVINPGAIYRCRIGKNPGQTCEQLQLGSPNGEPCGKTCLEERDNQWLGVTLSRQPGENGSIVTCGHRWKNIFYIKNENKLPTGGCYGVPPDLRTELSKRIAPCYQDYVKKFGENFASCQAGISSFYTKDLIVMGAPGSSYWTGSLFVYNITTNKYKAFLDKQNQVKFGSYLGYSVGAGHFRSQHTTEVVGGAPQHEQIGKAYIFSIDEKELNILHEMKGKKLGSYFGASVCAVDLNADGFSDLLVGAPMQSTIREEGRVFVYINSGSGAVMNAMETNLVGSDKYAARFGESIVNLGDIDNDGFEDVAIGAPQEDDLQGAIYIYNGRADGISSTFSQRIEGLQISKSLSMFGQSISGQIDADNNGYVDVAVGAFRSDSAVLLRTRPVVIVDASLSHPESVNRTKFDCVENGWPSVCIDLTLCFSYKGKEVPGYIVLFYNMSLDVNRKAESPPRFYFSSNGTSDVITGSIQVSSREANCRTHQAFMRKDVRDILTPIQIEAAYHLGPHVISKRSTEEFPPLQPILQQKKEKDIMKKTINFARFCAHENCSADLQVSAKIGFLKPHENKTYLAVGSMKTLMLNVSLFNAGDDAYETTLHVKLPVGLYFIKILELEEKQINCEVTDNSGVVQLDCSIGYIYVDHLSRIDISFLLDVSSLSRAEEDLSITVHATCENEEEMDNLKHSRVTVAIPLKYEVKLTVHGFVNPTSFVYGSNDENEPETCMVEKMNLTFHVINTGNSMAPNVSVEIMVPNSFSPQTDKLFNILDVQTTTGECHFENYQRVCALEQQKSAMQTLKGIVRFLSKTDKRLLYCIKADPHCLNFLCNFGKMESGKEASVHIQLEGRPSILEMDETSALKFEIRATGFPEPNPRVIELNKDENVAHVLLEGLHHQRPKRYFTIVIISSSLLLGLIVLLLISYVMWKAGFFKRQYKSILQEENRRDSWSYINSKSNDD
T1 sequence (P05556 21-798): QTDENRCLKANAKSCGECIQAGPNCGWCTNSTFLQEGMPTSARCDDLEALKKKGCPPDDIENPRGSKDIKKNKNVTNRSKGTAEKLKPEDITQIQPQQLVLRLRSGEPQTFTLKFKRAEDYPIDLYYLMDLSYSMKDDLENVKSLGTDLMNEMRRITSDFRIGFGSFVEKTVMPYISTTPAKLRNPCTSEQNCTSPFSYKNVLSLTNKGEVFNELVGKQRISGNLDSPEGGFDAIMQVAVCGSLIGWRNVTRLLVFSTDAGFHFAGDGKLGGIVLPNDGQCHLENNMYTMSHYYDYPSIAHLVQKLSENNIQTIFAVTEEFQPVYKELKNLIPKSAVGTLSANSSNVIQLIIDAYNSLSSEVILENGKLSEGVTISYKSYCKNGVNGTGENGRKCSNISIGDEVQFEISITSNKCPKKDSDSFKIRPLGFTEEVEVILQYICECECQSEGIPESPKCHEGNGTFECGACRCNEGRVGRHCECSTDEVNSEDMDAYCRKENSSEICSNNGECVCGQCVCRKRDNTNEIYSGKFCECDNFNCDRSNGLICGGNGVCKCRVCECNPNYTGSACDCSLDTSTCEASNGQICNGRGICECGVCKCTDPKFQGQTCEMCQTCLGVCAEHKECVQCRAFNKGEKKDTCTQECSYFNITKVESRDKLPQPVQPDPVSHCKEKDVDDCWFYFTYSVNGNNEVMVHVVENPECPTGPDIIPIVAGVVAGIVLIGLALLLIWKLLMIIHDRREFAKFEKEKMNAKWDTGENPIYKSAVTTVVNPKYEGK

Compound | IC50 [nM]
CCC(CC)C(=O)Nc1ccc(S(=O)(=O)Nc2cc(F)c(C(=O)N[C@@H](Cc3ccc(-n4c(=O)c(C)c(C)n(C)c4=O)cc3)C(=O)O)cc2F)cc1 [Compound A4] | 2500
COC1(C(=O)Nc2ccc(S(=O)(=O)Nc3cc(F)c(C(=O)N[C@@H](Cc4ccc(-n5c(=O)c(C)c(C)n(C)c5=O)cc4)C(=O)O)cc3F)cc2)CC1 [Compound A17] | 1300
Cn1c(=O)n(-c2ccc(C[C@H](NC(=O)c3cc(F)c(NS(=O)(=O)c4ccc(NC(=O)C(C)(C)CO)cc4)cc3F)C(=O)O)cc2)c(=O)c2ccncc21 [Compound A18] | 720
Cn1c(=O)n(-c2ccc(C[C@H](NC(=O)c3cc(F)c(NS(=O)(=O)c4ccc(NC(=O)C(C)(C)C)s4)cc3F)C(=O)O)cc2)c(=O)c2ccncc21 [Compound A9] | 160
Cn1c(=O)n(-c2ccc(C[C@H](NC(=O)c3cc(F)c(NS(=O)(=O)c4ccc(NC(=O)c5ccncc5)cc4)cc3F)C(=O)O)cc2)c(=O)c2ccncc21 [Compound A7] | 2000
Cc1c(C)n(C)c(=O)n(-c2ccc(C[C@H](NC(=O)c3cc(F)c(NS(=O)(=O)c4ccc(NC(=O)C5(O)CC5)cc4)cc3F)C(=O)O)cc2)c1=O [Compound A22] | 830
Cn1c(=O)n(-c2ccc(C[C@H](NC(=O)c3cc(F)c(NS(=O)(=O)c4ccc(NC(=O)C5CCNCC5)cc4)cc3F)C(=O)O)cc2)c(=O)c2ccncc21 [Compound A6, (2S)-2-[[2,5-difluoro-4-[[4-(piperidine-4-carbonylamino)phenyl]sulfonylamino]benzoyl]amino]-3-[4-(1-methyl-2,4-dioxo-pyrido[3,4-d]pyrimidin-3-yl)phenyl]propanoic acid] | 890
Cc1c(C)n(C)c(=O)n(-c2ccc(C[C@H](NC(=O)c3cc(F)c(NS(=O)(=O)c4ccc(NC(=O)C(C)(C)C)nc4)cc3F)C(=O)O)cc2)c1=O [Compound A25] | 2300
Cn1c(=O)n(-c2ccc(C[C@H](NC(=O)c3cc(F)c(NS(=O)(=O)c4ccc(NC(=O)C5(c6ccccc6)CC5)cc4)cc3F)C(=O)O)cn2)c(=O)c2ccncc21 [Compound A29] | 12000
Cc1c(C)n(C)c(=O)n(-c2ccc(C[C@H](NC(=O)c3cc(F)c(NS(=O)(=O)c4ccc(NC(=O)C(C)(C)C)cc4)cc3F)C(=O)O)cc2)c1=O [Compound A8] | 1600
CCC(CC)C(=O)Nc1ccc(S(=O)(=O)Nc2cc(F)c(C(=O)N[C@@H](Cc3ccc(-n4c(=O)c5ccncc5n(C)c4=O)cc3)C(=O)O)cc2F)cc1 [Compound A3] | 2400
Cn1c2c(c(=O)n(-c3ccc(C[C@H](NC(=O)c4cc(F)c(NS(=O)(=O)c5ccc(NC(=O)C(C)(C)C)cc5)cc4F)C(=O)O)cc3)c1=O)CCOC2 [Compound A27] | 910
Cn1c(=O)n(-c2ccc(C[C@H](NC(=O)c3cc(F)c(NS(=O)(=O)c4ccc(NC(=O)C(C)(C)C)cn4)cc3F)C(=O)O)cn2)c(=O)c2ccncc21 [Compound A31] | 1900
Cc1c(C)n(C)c(=O)n(-c2ccc(C[C@H](NC(=O)c3cc(F)c(NS(=O)(=O)c4ccc(NC(=O)C(C)(C)CO)cc4)cc3F)C(=O)O)cc2)c1=O [Compound A21] | 680
Cn1c(=O)n(-c2ccc(C[C@H](NC(=O)c3cc(F)c(NS(=O)(=O)c4ccc(NC(=O)C5(C(F)(F)F)CC5)cc4)cc3F)C(=O)O)cc2)c(=O)c2ccncc21 [Compound A24] | 1400
Cc1c(C)n(C)c(=O)n(-c2ccc(C[C@H](NC(=O)c3cc(F)c(NS(=O)(=O)c4ccc(NC(=O)C(C)(C)C)s4)cc3F)C(=O)O)cc2)c1=O [Compound A10] | 400
Cn1c(=O)n(-c2ccc(C[C@H](NC(=O)c3cc(F)c(NS(=O)(=O)c4ccc(NC(=O)NC(C)(C)C)cc4)cc3F)C(=O)O)cc2)c(=O)c2ccncc21 [Compound A5] | 2000
Cc1c(C)n(C)c(=O)n(-c2ccc(C[C@H](NC(=O)c3cc(F)c(NS(=O)(=O)c4ccc(NC(=O)C5(c6ccccc6)CC5)cc4)cc3F)C(=O)O)cc2)c1=O [Compound A30] | 2700

More lines, now with the values ahead:

IC50 [nM] | Compound
1200 | Cn1cnc2c1c(=O)n(-c1ccc(C[C@H](NC(=O)c3cc(F)c(NS(=O)(=O)c4ccc(NC(=O)C(C)(C)C)cc4)cc3F)C(=O)O)cc1)c(=O)n2C [Compound A43]
4000 | CN1C(=O)N(c2ccc(S(=O)(=O)Nc3cc(F)c(C(=O)N[C@@H](Cc4ccc(-n5c(=O)c6ccncc6n(C)c5=O)nc4)C(=O)O)cc3F)cc2)C(=O)C1(C)C [Compound A38]
4100 | Cc1cn(C)c(=O)n(-c2ccc(C[C@H](NC(=O)c3cc(F)c(NS(=O)(=O)c4ccc(NC(=O)C(C)(C)C)cc4)cc3F)C(=O)O)cc2)c1=O [Compound A37]
5500 | Cc1c(CO)c(=O)n(-c2ccc(C[C@H](NC(=O)c3cc(F)c(NS(=O)(=O)c4ccc(NC(=O)C(C)(C)C)cc4)cc3F)C(=O)O)cc2)c(=O)n1C [Compound A51]
13000 | Cc1cn(C)c(=O)n(-c2ccc(C[C@H](NC(=O)c3cc(F)c(NS(=O)(=O)c4ccc(NC(=O)C(C)(C)C)cc4)cc3F)C(=O)O)nc2)c1=O [Compound A69]
> 31200 | Cn1ccc(=O)n(-c2ccc(C[C@H](NC(=O)c3cc(F)c(NS(=O)(=O)c4ccc(NC(=O)C5(C#N)CC5)cc4)cc3F)C(=O)O)cn2)c1=O [Compound A59]
7100 | Cc1c(C)n(C)c(=O)n(-c2ccc(C[C@H](NC(=O)c3cc(F)c(NS(=O)(=O)c4cccc(NC(=O)C(C)(C)C)c4)cc3F)C(=O)O)cn2)c1=O [Compound A50]
21000 | Cc1cn(C)c(=O)n(-c2ccc(C[C@H](NC(=O)c3cc(F)c(NS(=O)(=O)c4ccc(NC(=O)C5CCCC5)cc4)cc3F)C(=O)O)cn2)c1=O [Compound A65]
25000 | Cn1ccc(=O)n(-c2ccc(C[C@H](NC(=O)c3cc(F)c(NS(=O)(=O)c4ccc(NC(=O)C(C)(C)C(F)(F)F)cc4)cc3F)C(=O)O)cn2)c1=O [Compound A57]
1800 | Cc1cc(=O)n(-c2ccc(C[C@H](NC(=O)c3cc(F)c(NS(=O)(=O)c4ccc(NC(=O)C(C)(C)C)cc4)cc3F)C(=O)O)cc2)c(=O)n1C [Compound A46]
9300 | Cc1cc(=O)n(-c2ccc(C[C@H](NC(=O)c3cc(F)c(NS(=O)(=O)c4ccc(NC(=O)C(C)(C)C)cc4)cc3F)C(=O)O)nc2)c(=O)n1C [Compound A72]
> 31200 | CCC(CC)C(=O)Nc1ccc(S(=O)(=O)Nc2cc(F)c(C(=O)N[C@@H](Cc3ccc(-n4c(=O)ccn(C)c4=O)nc3)C(=O)O)cc2F)cc1 [Compound A61]
3600 | Cc1c(C)n(C)c(=O)n(-c2ccc(C[C@H](NC(=O)c3cc(F)c(NS(=O)(=O)c4ccc(-n5ccc(C6CCOCC6)cc5=O)cc4)cc3F)C(=O)O)cc2)c1=O [Compound A34]
4100 | Cn1c2c(c(=O)n(-c3ccc(C[C@H](NC(=O)c4cc(F)c(NS(=O)(=O)c5ccc(NC(=O)C(C)(C)C)cc5)cc4F)C(=O)O)nc3)c1=O)CCCC2 [Compound A47]
29000 | Cc1cn(C)c(=O)n(-c2ccc(C[C@H](NC(=O)c3cc(F)c(NS(=O)(=O)c4ccc(NC(=O)C(C)(C)C)cc4)cc3F)C(=O)O)cn2)c1=O [Compound A54]
14000 | Cc1cn(C)c(=O)n(-c2ccc(C[C@H](NC(=O)c3cc(F)c(NS(=O)(=O)c4ccc(NC(=O)C(C)(C)C(F)(F)F)cc4)cc3F)C(=O)O)cn2)c1=O [Compound A58]
19000 | Cn1cc(C(F)(F)F)c(=O)n(-c2ccc(C[C@H](NC(=O)c3cc(F)c(NS(=O)(=O)c4ccc(NC(=O)C(C)(C)C)cc4)cc3F)C(=O)O)cn2)c1=O [Compound A67]
10000 | Cc1cc(=O)n(-c2ccc(C[C@H](NC(=O)c3cc(F)c(NS(=O)(=O)c4ccc(NC(=O)C(C)(C)C)cc4)cc3F)C(=O)O)cn2)c(=O)n1C [Compound A45]
32000 | CN1CCC(=O)N(c2ccc(C[C@H](NC(=O)c3cc(F)c(NS(=O)(=O)c4ccc(NC(=O)C(C)(C)C)cc4)cc3F)C(=O)O)cn2)C1=O [Compound A75, (2S)-2-[2,5-difluoro-4-[(4-pivalamidophenyl)sulfonamide]benzamido]-3-[6-(3-methyl-2,6-dioxotetrahydropyrimidin-1(2H)-yl)pyridin-3-yl]propanoic acid]
1800 | Cc1c(C)n(C)c(=O)n(-c2ccc(C[C@H](NC(=O)c3cc(F)c(NS(=O)(=O)c4cccc(NC(=O)C(C)(C)C)c4)cc3F)C(=O)O)cc2)c1=O [Compound A49]
> 31200 | Cc1cn(C)c(=O)n(-c2ccc(C[C@H](NC(=O)c3cc(F)c(NS(=O)(=O)c4ccc(NC(=O)C(C)(C)CO)cc4)cc3F)C(=O)O)cn2)c1=O [Compound A63]
2200 | Cn1c2c(c(=O)n(-c3ccc(C[C@H](NC(=O)c4cc(F)c(NS(=O)(=O)c5ccc(NC(=O)C(C)(C)C)cc5)cc4F)C(=O)O)cn3)c1=O)CCCC2 [Compound A52]
